From patent US20210395226A1, “SUBSTITUTED ARYL COMPOUND AND PREPARATION METHOD THEREFOR AND USE THEREOF” (SICHUAN KELUN-BIOTECH BIOPHARMACEUTICAL CO., LTD., priority 2018, published 2021)

Molecular target: T1, ADORA2a/CHOK1 cells (Homo sapiens, UniProt P29274)
T1 construct: host or cells: CHO-K1
Test: Inhibitory activity for ADORA2a/CHOK1 cells (cAMP detection, adenosine as agonist)
Format: cell-based
Conditions: for inhibition at 0.1 µM: CHO-K1, 100 nM compound, read-out: Inhibition rate at 100 nM; for inhibition at 1 µM: CHO-K1, 1000 nM compound, read-out: Inhibition rate at 1000 nM
Procedure: Test Example 2: Study on Inhibitory Activity for ADORA2a/CHOK1 Cells
ADORA2a/CHOK1 cells (Cobai, CBP71017).
FBS was added to Ham's F-12 medium to a concentration of 10% (v/v), Zeocin was added to a final concentration of 200 μg/mL, and Hygromycin B was added to a final concentration of 100 μg/mL, and the resulting mixture was stored at 4° C. for later use.
A certain amount of adenosine was precisely weighed and placed into a 1.5 mL EP tube, then a certain volume of cell culture medium was added, the resulting mixture was incubated at 37° C. for dissolution, thereby a 10 mM stock solution was prepared. The stock solution was diluted with cell culture medium at 1:1000 to get 10 μM adenosine solution.
The compound to be tested was dissolved in DMSO to form a 10 mM stock solution, and the stock solution was stored in a refrigerator at 4° C. for later use. The stock solution was diluted with the 10 μM of adenosine solution to 2000 nM or 200 nM for later test.
(1) CHO-K1 cells stably expressing ADORA2A receptor were cultured in a 37° C., 5% CO2 cell incubator. When the cell confluence reached about 80%, the cells were digested by trypsin, dispersed and counted; (2) the cell concentration was adjusted to 6×10^5 cells/mL according to the counting results; (3) the cells was inoculated into a white 384-well cell culture plate at 5 μL per well (about 3000 cells/well).
All groups were provided with multiple wells, the adenosine-free cell culture medium was added to the wells of the Blank group (5 μL/well); 10 μM adenosine solution was added to the wells of the Agonist group (5 μL/well); the diluted compound was added to the wells of the test compound group (5 μL/well). After the addition of the compound was completed, the 384-well plate was centrifuged at 2500 rpm for 30 seconds to fully mix the compound and the medium, then placed in a 25° C. incubator and incubated for 30 min.
A certain volume of cAMP-d2 was taken, and diluted by adding Lysis & Detection Buffer at the ratio of 1:5 to prepare Solution A.
A certain volume of cAMP-Cryptate was taken, and diluted by adding Lysis & Detection Buffer at the ratio of 1:5 to prepare Solution B.
(2) After 30 min of incubation in step 2 was completed, addition of detection solution was carried out. The 384-well plate was taken out, 5 μL of Solution A was added to each well, and then 5 μL of Solution B was added to each well, then the 384-well plate was covered with sealing membrane, centrifuged at 2500 rpm for 30 s (to fully mix the detection solution and medium), and incubated in a thermostat at 25° C. for 1 h.
After the incubation, the 384-well plate was taken out, and detected by PHERA Star FS to read data, detection wavelength: 620 nm/665 nm.
inhibition rate %=(1−(RCompound−RBlank)/(RAgonist−RBlank))*100%
wherein, RCompound represented the R Value of the test compound group, RAgonist represented the R value of the Agonist group, and RBlank represented the R value of the Blank group.

T1 sequence (P29274 whole entry): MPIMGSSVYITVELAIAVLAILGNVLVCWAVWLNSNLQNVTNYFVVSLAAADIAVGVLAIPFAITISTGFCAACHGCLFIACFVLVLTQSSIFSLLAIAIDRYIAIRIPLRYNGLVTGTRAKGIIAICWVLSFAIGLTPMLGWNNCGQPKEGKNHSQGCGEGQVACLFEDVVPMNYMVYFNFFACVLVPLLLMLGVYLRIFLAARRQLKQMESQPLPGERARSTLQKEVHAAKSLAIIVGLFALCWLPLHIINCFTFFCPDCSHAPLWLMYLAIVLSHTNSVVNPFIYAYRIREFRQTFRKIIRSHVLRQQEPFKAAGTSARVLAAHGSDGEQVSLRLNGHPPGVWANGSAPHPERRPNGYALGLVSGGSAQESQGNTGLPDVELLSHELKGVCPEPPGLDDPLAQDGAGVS

| inhibition at 0.1 µM | inhibition at 1 µM | Structure (SMILES) |
| --- | --- | --- |
| 33.9% | 94.4% | Cc1cc(-c2cnc(NC(=O)N3CCOCC3)nc2-c2ccc(F)cc2)cc(Cl)n1 [Compound 19, N-(5-(2-chloro-6-methylpyridin-4-yl)-4-(4-fluorophenyl)pyrimidin-2-yl) morpholine-4-carboxamide] |
| 72% | 112% | Cc1ncnc2ccc(-c3cnc(NC(=O)N4CCOCC4)nc3-c3ccc(F)cc3)cc12 [Compound 11, N-(4-(4-fluorophenyl)-5-(4-methylquinazolin-6-yl)pyrimidin-2-yl) morpholine-4-carboxamide] |
